Results from patent publication US20230407373A1 (priority 2020, published 2023).
Entries after “also recorded” stand apart in the source; their conditions may differ. Like-named read-outs stand apart in the source and are kept apart here.

Columns and labels:
Type in all cases: binding
HCoV-OC43 gRNA and sgRNA = settings: for target (unweighted spectral count, OC43 Probe II capture) / target (unweighted spectral count): tested against no-probe control; for target (unweighted spectral count, OC43 Probe II capture): FDR<10%; for target (unweighted spectral count): OC43 Probe II, infected cells; for target (unweighted spectral count, OC43 Probe II) / background (unweighted spectral count, no-probe control): type n_48_v, 48 hpi; for target (unweighted spectral count, OC43 Probe II): OC43 Probe II capture on infected cells; for background (unweighted spectral count, no-probe control): no-probe control on infected cells; for target (spectral count) / background (spectral count): type s_36_m, Probe II; for target (spectral count): HCoV-OC43-infected HCT-8 cells; for background (spectral count): uninfected-probe control
SARS-CoV-2 gRNA = settings: for target (unweighted spectral count of the protein in the RNP capture): LC-MS/MS, Probe I sample (first 199 lines of Table 2)
[1] = tested on: SARS-CoV-2 gRNA and sgRNAs; settings: for target (unweighted spectral count in RNP capture): Probe II capture, LC-MS/MS LFQ; for background (unweighted spectral count in control): no-probe control pull-down, used as background for Probe II; for target (unweighted spectral count of the protein in the RNP capture experiment): LC-MS/MS label-free quantification, probe pool not given; for back-ground (unweighted spectral count of the protein in the control experiment): protein background of the control (e.g. no-probe) experiment
gRNA of HCoV-OC43 = settings: for target (spectral count) / background (spectral count): type g_36_m, 36 hpi, Probe I; for target (spectral count): HCoV-OC43-infected HCT-8 cells; for background (spectral count): uninfected-probe control; for target (spectral count, OC43 Probe I RNP capture) / background (spectral count, no-probe control): type n_48_v: 48 hours post-infection; for target (spectral count, OC43 Probe I RNP capture): infected cells, unweighted spectral count; for background (spectral count, no-probe control): no-probe control on infected cells

Substance | target (unweighted spectral count) (HCoV-OC43 gRNA and sgRNA; 12 hpi (type n_12_v)) | target (unweighted spectral count of the protein in the RNP capture) (SARS-CoV-2 gRNA; […]) | target (unweighted spectral count in RNP capture) [1] | background (unweighted spectral count in control) [1] | target (spectral count, OC43 Probe I RNP capture) (gRNA of HCoV-OC43) | background (spectral count, no-probe control) (gRNA of HCoV-OC43) | target (unweighted spectral count, OC43 Probe II capture) (HCoV-OC43 gRNA and sgRNA; 36 hpi, type n_36_v) | target (unweighted spectral count) (HCoV-OC43 gRNA and sgRNA; 24 hpi (type n_24_v)) | target (unweighted spectral count, OC43 Probe II) (HCoV-OC43 gRNA and sgRNA) | background (unweighted spectral count, no-probe control) (HCoV-OC43 gRNA and sgRNA) | target (spectral count) (HCoV-OC43 gRNA and sgRNA; 36 hpi) | background (spectral count) (HCoV-OC43 gRNA and sgRNA; 36 hpi) | further results
NPM1 | 4 | 13 | 17 | 1 | – | – | – | – | – | – | – | – | target (unweighted spectral count, OC43 Probe II capture) (HCoV-OC43 gRNA and sgRNA; 24 hpi, type n_24_v): 7
PABPC1: host protein, UniProt P11940 | 7 | 29 | – | – | 23 | 2 | 23 | 18 | 26 | 2 | 29 | 3 | target (spectral count) (gRNA of HCoV-OC43): 22; background (spectral count) (gRNA of HCoV-OC43): 1; enrichment in SARS-CoV-2 Probe I RNP capture (SARS-CoV-2 gRNA): enriched; also recorded: found in the SARS-CoV-2 experiments; enrichment in SARS-CoV-2 Probe II RNP capture [1]: enriched; also recorded: found in the SARS-CoV-2 experiments
PCBP1 | 8 | 12 | – | 2 | – | – | 16 | 8 | – | – | – | – | –
PTBP1: host protein, UniProt P26599 | 17 | 108 | – | – | – | – | 61 | 33 | 43 | 5 | 61 | 12 | –
PTBP3: host protein, UniProt O95758 | – | 23 | – | 1 | 14 | 2 | 8 | 7 | 12 | 2 | 8 | 1 | target (spectral count) (gRNA of HCoV-OC43): 11; background (spectral count) (gRNA of HCoV-OC43): 1; enrichment in SARS-CoV-2 Probe I RNP capture (SARS-CoV-2 gRNA): found in the SARS-CoV-2 experiments; enrichment in SARS-CoV-2 Probe II RNP capture [1]: found in the SARS-CoV-2 experiments
RPL22L1 | 5 | 8 | – | – | – | – | – | – | – | – | – | – | –
SAFB2 | – | 8 | – | – | 9 | 1 | 5 | – | 7 | 1 | – | – | target (unweighted spectral count of the protein in the RNP capture experiment) [1]: 6; back-ground (unweighted spectral count of the protein in the control experiment) [1]: 1
TAF15: host protein, UniProt Q92804 | 5 | – | 8 | 1 | 11 | 1 | – | – | 8 | 1 | 8 | 1 | target (unweighted spectral count in RNP capture) (SARS-CoV-2 gRNA; Probe I capture, […], LC-MS/MS LFQ): 5; background (unweighted spectral count in control) (SARS-CoV-2 gRNA; no-probe control pull-down, used as background for Probe I): 1
TARDBP | 10 | 28 | 30 | 1 | 28 | 3 | 19 | 20 | 22 | 3 | – | – | –
VIM | – | 16 | – | – | – | – | – | – | – | – | – | – | target (unweighted spectral count of the protein in the RNP capture experiment) [1]: 17; back-ground (unweighted spectral count of the protein in the control experiment) [1]: 4
XRCC6 | – | 10 | 9 | 1 | 12 | 1 | 11 | 7 | 17 | 1 | – | – | –
